Drawing on PubChem BioAssay AID328 (DTP/NCI, 2004), this text covers T/C for 24 compounds.

Several values for one entry are separate records, joined by “and”; a condition that tells them apart may be missing. Equal values may be shown once. Toxic doses and inconclusive results are not listed.

This assay concerns BDF1 mice, P388 leukemia ip, median survival T/C. Nature of the assay: NCI In Vivo Anticancer Drug Screen. Data for tumor model P388 Leukemia (intraperitoneal) in B6D2F1 (BDF1) mice. The conditions noted are these: endpoint: median survival time, higher = longer survival. A digest of the protocol: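 Each value expresses how treatment altered survival: treated-mouse outcome over vehicle-mouse outcome, both groups bearing the transplanted tumour.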

The mark [1] stands for this setting: dose: 100.0 mg/kg/injection, schedule: Q01DX009 (ip), vehicle: saline with Tween-80.
[2] abbreviates: dose: 200.0 mg/kg/injection, schedule: Q01DX009 (ip), vehicle: saline with Tween-80.
Setting [3] is: dose: 50.0 mg/kg/injection, schedule: Q01DX009 (ip), vehicle: saline with Tween-80.
The mark [4] stands for this setting: dose: 100.0 mg/kg/injection, schedule: Q01DX009 (ip), vehicle: Klucel (hydroxypropylcellulose) (HPC).
Where [5] appears, read: dose: 100.0 mg/kg/injection, schedule: Q04DX003 (ip), vehicle: Klucel (hydroxypropylcellulose) (HPC).
Where [6] appears, read: dose: 200.0 mg/kg/injection, schedule: Q01DX009 (ip), vehicle: Klucel (hydroxypropylcellulose) (HPC).
The mark [7] stands for this setting: dose: 200.0 mg/kg/injection, schedule: Q04DX003 (ip), vehicle: Klucel (hydroxypropylcellulose) (HPC).
Setting [8] is: dose: 400.0 mg/kg/injection, schedule: Q01DX009 (ip), vehicle: Klucel (hydroxypropylcellulose) (HPC).
The mark [9] stands for this setting: dose: 400.0 mg/kg/injection, schedule: Q04DX003 (ip), vehicle: Klucel (hydroxypropylcellulose) (HPC).
Setting [10] is: dose: 10.0 mg/kg/injection, schedule: Q01DX009 (ip), vehicle: saline.
Setting [11] is: dose: 25.0 mg/kg/injection, schedule: Q04DX003 (ip), vehicle: saline with Tween-80.
The mark [12] stands for this setting: dose: 50.0 mg/kg/injection, schedule: Q04DX003 (ip), vehicle: saline with Tween-80.
Where [13] appears, read: dose: 100.0 mg/kg/injection, schedule: Q04DX003 (ip), vehicle: saline with Tween-80.

Take `C[C@]12CC[C@H]3[C@@H](CC[C@@H]4C[C@@H](O)CC[C@@]43C=O)[C@]13O[C@@H]3CC2c1ccc(=O)oc1` (stereo partly specified): the T/C is, setting by setting: (dose: 0.25 mg/kg/injection, schedule: Q01DX009 (ip), vehicle: Klucel (hydroxypropylcellulose) (HPC)) 100 % of control; (dose: 0.5 mg/kg/injection, schedule: Q01DX009 (ip), vehicle: Klucel (hydroxypropylcellulose) (HPC)) 98 % of control; (dose: 1.0 mg/kg/injection, schedule: Q01DX009 (ip), vehicle: Klucel (hydroxypropylcellulose) (HPC)) 98 % of control; (dose: 2.0 mg/kg/injection, schedule: Q01DX009 (ip), vehicle: Klucel (hydroxypropylcellulose) (HPC)) 100 % of control.
Turning to `Cc1cc(NC(=O)c2ccc(C(=O)Nc3ccc(C4=NCCN4)c(C)c3)cc2)ccc1C1=NCCN1`, the T/C under setting [1] was 122 % of control and the T/C under setting [2] was 186 % of control.
`CC1CN1C(=O)c1cc(C(=O)N2CC2C)cc(C(=O)N2CC2C)c1` (stereo unspecified): the T/C is 113 % of control (dose: 8.25 mg/kg/injection, schedule: Q04DX003 (ip), vehicle: saline with Tween-80); 117 % of control (dose: 16.5 mg/kg/injection, schedule: Q04DX003 (ip), vehicle: saline with Tween-80); 166 % of control (dose: 37.5 mg/kg/injection, schedule: Q01DX009 (ip), vehicle: saline with Tween-80); 163 % of control under setting [3]; 86 % of control (dose: 66.0 mg/kg/injection, schedule: Q04DX003 (ip), vehicle: saline); 86 % of control (dose: 150.0 mg/kg/injection, schedule: Q04DX003 (ip), vehicle: saline).
For the compound `N=C(N)CCNC(=O)C1CCC(N)=N1` (stereo unspecified), the T/C by setting is: (dose: 2.0 mg/kg/injection, schedule: Q01DX009 (ip), vehicle: saline) 91 % of control; (dose: 4.0 mg/kg/injection, schedule: Q01DX009 (ip), vehicle: saline) 100 % of control; (dose: 8.0 mg/kg/injection, schedule: Q01DX009 (ip), vehicle: saline) 108 % of control.
In the case of `C=CCC(CC)(C(=O)OCC)C(=O)OCC`, the T/C reads like this: (dose: 100.0 mg/kg/injection, schedule: Q01DX009 (ip), vehicle: saline) 100 % of control; (dose: 200.0 mg/kg/injection, schedule: Q01DX009 (ip), vehicle: saline) 104 % of control; (dose: 400.0 mg/kg/injection, schedule: Q01DX009 (ip), vehicle: saline) 122 % of control.
As for `CCCCSCC(N)C(=O)O` (stereo unspecified), the T/C is 116 % of control under setting [4]; 104 % of control under setting [5]; 121 % of control under setting [6]; 104 % of control under setting [7]; 111 % of control under setting [8]; 95 % of control under setting [9].
For the compound `Cc1c2oc3c(C)ccc(C(=O)NCCc4ccccn4)c3nc-2c(C(=O)NCCc2ccccn2)c(N)c1=O`, the T/C was 101 % of control (dose: 100.0 mg/kg/injection, schedule: Q04DX002 (ip), vehicle: saline with Tween-80); 92 % of control (dose: 200.0 mg/kg/injection, schedule: Q04DX002 (ip), vehicle: saline with Tween-80); 97 % of control (dose: 400.0 mg/kg/injection, schedule: Q04DX002 (ip), vehicle: saline with Tween-80).
Take `CC(/C=C/c1ccccc1)=N\O`: the T/C reads like this: (dose: 100.0 mg/kg/injection, schedule: Q04DX003 (ip), vehicle: saline sonified) 90 % of control; (dose: 200.0 mg/kg/injection, schedule: Q04DX003 (ip), vehicle: saline sonified) 90 % of control; (dose: 400.0 mg/kg/injection, schedule: Q04DX003 (ip), vehicle: saline sonified) 90 % of control.
With `CC(C)=CC(=O)OCC[N+](C)(C)C`, the T/C by setting is: (dose: 12.5 mg/kg/injection, schedule: Q01DX009 (ip), vehicle: saline) 97 % of control; (dose: 25.0 mg/kg/injection, schedule: Q01DX009 (ip), vehicle: saline) 90 % of control.
Turning to `C=C1C(=O)OC2C=C(C)CC3C=C(CCC=C(C)CCC12)C(=O)O3` (stereo unspecified), the T/C was 88 % of control under setting [10]; 105 % of control (dose: 30.0 mg/kg/injection, schedule: Q01DX009 (ip), vehicle: saline); 94 % of control (dose: 40.0 mg/kg/injection, schedule: Q01DX009 (ip), vehicle: saline); 120 % of control (dose: 60.0 mg/kg/injection, schedule: Q01DX009 (ip), vehicle: saline); 112 % of control (dose: 120.0 mg/kg/injection, schedule: Q01DX009 (ip), vehicle: saline).
Consider `O=S(=O)(C1=CCCCC1)C1=CCCCC1`, for which the T/C by setting is: under setting [11], 104 % of control; under setting [12], 99 % of control; under setting [13], 88 % of control and 100 % of control.
As to `Cc1c(Cl)cccc1NC(=O)c1ccccc1C(=O)O`, the T/C under setting [5] was 91 % of control, the T/C under setting [7] was 95 % of control and the T/C under setting [9] was 100 % of control.
Consider `COC(=O)C(CC(O)c1ccccc1)N1CCOCC1` (stereo unspecified), for which the T/C runs as follows: (dose: 100.0 mg/kg/injection, schedule: Q01DX001 (ip), vehicle: saline with Tween-80) 100 % of control; (dose: 200.0 mg/kg/injection, schedule: Q01DX001 (ip), vehicle: saline with Tween-80) 100 % of control; (dose: 400.0 mg/kg/injection, schedule: Q01DX001 (ip), vehicle: saline with Tween-80) 100 % of control.
In the case of `CCOC(=O)c1nnc(-c2ccccc2)c(-c2ccccc2)n1`, the T/C under setting [13] was 104 % of control; the T/C (dose: 200.0 mg/kg/injection, schedule: Q04DX003 (ip), vehicle: saline with Tween-80) was 96 % of control; the T/C (dose: 400.0 mg/kg/injection, schedule: Q04DX003 (ip), vehicle: saline with Tween-80) was 89 % of control.
On to `COCc1cnc2nc(N)nc(N)c2n1`, for which the T/C (dose: 3.13 mg/kg/injection, schedule: Q01DX009 (ip), vehicle: other) is 116 % of control.
Regarding `Clc1nn2cnnc2c2ccccc12`, the T/C (dose: 5.0 mg/kg/injection, schedule: Q01DX009 (ip), vehicle: saline) was 101 % of control and the T/C under setting [10] is 101 % of control.
As for `O=C(NC1CCCCC1)N(C(=O)C(F)(F)F)C1CCCCC1`, the T/C by setting is: under setting [3], 97 % of control; under setting [1], 93 % of control; under setting [2], 93 % of control.
Consider `CCOC(=O)c1[nH]c2c(c1CC(CC)[N+](=O)[O-])CCCC2` (stereo unspecified), for which the T/C under setting [5] is 95 % of control, the T/C under setting [7] is 100 % of control and the T/C under setting [9] is 91 % of control.
Consider `N#CSCc1nc2ccc(Cl)cc2c(-c2ccccc2)[n+]1[O-]`, for which the T/C under setting [3] is 100 % of control, the T/C under setting [1] was 114 % of control and the T/C under setting [2] was 114 % of control.
Consider `CCN(CC)CCCC(C)NC(=O)c1cc(=O)[nH]c(=O)[nH]1` (stereo unspecified), for which the T/C runs as follows: (dose: 25.0 mg/kg/injection, schedule: Q01DX009 (ip), vehicle: water) 103 % of control; (dose: 50.0 mg/kg/injection, schedule: Q01DX009 (ip), vehicle: water) 106 % of control; (dose: 100.0 mg/kg/injection, schedule: Q01DX009 (ip), vehicle: water) 100 % of control; (dose: 100.0 mg/kg/injection, schedule: Q04DX003 (ip), vehicle: water) 100 % of control; (dose: 200.0 mg/kg/injection, schedule: Q04DX003 (ip), vehicle: water) 98 % of control.
Regarding `O=C1NCC(COc2ccc(Cl)cc2)O1` (stereo unspecified), the T/C is 108 % of control (dose: 50.0 mg/kg/injection, schedule: Q01DX009 (ip), vehicle: Klucel (hydroxypropylcellulose) (HPC)); 105 % of control under setting [4]; 105 % of control under setting [6].
Consider `CCCCOC1OC[N+](C)(C)CC1(C)C` (stereo unspecified), for which the T/C by setting is: under setting [11], 102 % of control; under setting [12], 105 % of control; under setting [13], 100 % of control and 105 % of control.
Consider `COC(=O)c1ccccc1C1(c2ccccc2C(=O)OC)OC(=O)c2ccccc21`, for which the T/C reads like this: under setting [4], 100 % of control; under setting [6], 100 % of control; under setting [8], 100 % of control.
For the compound `Oc1c(Cl)cc(Cl)cc1C1Nc2ccccc2-n2cccc21` (stereo unspecified), under setting [2], the T/C is 88 % of control.
